According to patent US20230073777A1, “CYCLIC-AMP RESPONSE ELEMENT BINDING PROTEIN (CBP) AND/OR ADENOVIRAL E1A BINDING PROTEIN OF 300 KDA (P300) DEGRADATION COMPOUNDS AND METHODS OF USE” (CULLGEN (SHANGHAI), INC., priority 2019, published 2023):
Like-named read-outs stand apart in the source and are kept apart here.

How the values were obtained:
P300 = P300 (Homo sapiens, UniProt Q09472); assay: Immunoblotting of P300 protein levels in LNCaP or 22RV1 cells; assay type: cell-based; design: LNCaP or 22RV1 cells that express CBP/P300 proteins were treated with GNE-781 or the bivalent compounds; endogenous in cells; host or cells: LNCaP (clone FGC) or 22RV1 cells; settings: read-out: Degradation (10 nM)
Procedure, shortened: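 P300/CBP levels quantified by chemiluminescent immunoblot band densitometry, normalized against tubulin or vinculin loading controls. Lysates came from LNCaP or 22RV1 cells exposed to compounds or DMSO vehicle for indicated times.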

LNCaP cells = assay: LNCaP cell viability assay (CellTiter-Glo); assay type: cell-based; settings: Homo sapiens, 72 h, LNCaP prostate cancer cell viability inhibition, 3 days
Procedure, shortened: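 Three-day treatment of LNCaP cells (5000 per well) across a 12-point, 3-fold dilution series starting at 10 μM. ATP luminescence (CellTiter-Glo) relative to untreated controls gave dose-response curves fitted nonlinearly for IC50.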

[1] = percentage of inhibition of p300 at 10 nM (Table 2)
[2] = percentage of inhibition of p300 at 10 nM (Table 3)

Chain of P300 (Q09472 whole entry): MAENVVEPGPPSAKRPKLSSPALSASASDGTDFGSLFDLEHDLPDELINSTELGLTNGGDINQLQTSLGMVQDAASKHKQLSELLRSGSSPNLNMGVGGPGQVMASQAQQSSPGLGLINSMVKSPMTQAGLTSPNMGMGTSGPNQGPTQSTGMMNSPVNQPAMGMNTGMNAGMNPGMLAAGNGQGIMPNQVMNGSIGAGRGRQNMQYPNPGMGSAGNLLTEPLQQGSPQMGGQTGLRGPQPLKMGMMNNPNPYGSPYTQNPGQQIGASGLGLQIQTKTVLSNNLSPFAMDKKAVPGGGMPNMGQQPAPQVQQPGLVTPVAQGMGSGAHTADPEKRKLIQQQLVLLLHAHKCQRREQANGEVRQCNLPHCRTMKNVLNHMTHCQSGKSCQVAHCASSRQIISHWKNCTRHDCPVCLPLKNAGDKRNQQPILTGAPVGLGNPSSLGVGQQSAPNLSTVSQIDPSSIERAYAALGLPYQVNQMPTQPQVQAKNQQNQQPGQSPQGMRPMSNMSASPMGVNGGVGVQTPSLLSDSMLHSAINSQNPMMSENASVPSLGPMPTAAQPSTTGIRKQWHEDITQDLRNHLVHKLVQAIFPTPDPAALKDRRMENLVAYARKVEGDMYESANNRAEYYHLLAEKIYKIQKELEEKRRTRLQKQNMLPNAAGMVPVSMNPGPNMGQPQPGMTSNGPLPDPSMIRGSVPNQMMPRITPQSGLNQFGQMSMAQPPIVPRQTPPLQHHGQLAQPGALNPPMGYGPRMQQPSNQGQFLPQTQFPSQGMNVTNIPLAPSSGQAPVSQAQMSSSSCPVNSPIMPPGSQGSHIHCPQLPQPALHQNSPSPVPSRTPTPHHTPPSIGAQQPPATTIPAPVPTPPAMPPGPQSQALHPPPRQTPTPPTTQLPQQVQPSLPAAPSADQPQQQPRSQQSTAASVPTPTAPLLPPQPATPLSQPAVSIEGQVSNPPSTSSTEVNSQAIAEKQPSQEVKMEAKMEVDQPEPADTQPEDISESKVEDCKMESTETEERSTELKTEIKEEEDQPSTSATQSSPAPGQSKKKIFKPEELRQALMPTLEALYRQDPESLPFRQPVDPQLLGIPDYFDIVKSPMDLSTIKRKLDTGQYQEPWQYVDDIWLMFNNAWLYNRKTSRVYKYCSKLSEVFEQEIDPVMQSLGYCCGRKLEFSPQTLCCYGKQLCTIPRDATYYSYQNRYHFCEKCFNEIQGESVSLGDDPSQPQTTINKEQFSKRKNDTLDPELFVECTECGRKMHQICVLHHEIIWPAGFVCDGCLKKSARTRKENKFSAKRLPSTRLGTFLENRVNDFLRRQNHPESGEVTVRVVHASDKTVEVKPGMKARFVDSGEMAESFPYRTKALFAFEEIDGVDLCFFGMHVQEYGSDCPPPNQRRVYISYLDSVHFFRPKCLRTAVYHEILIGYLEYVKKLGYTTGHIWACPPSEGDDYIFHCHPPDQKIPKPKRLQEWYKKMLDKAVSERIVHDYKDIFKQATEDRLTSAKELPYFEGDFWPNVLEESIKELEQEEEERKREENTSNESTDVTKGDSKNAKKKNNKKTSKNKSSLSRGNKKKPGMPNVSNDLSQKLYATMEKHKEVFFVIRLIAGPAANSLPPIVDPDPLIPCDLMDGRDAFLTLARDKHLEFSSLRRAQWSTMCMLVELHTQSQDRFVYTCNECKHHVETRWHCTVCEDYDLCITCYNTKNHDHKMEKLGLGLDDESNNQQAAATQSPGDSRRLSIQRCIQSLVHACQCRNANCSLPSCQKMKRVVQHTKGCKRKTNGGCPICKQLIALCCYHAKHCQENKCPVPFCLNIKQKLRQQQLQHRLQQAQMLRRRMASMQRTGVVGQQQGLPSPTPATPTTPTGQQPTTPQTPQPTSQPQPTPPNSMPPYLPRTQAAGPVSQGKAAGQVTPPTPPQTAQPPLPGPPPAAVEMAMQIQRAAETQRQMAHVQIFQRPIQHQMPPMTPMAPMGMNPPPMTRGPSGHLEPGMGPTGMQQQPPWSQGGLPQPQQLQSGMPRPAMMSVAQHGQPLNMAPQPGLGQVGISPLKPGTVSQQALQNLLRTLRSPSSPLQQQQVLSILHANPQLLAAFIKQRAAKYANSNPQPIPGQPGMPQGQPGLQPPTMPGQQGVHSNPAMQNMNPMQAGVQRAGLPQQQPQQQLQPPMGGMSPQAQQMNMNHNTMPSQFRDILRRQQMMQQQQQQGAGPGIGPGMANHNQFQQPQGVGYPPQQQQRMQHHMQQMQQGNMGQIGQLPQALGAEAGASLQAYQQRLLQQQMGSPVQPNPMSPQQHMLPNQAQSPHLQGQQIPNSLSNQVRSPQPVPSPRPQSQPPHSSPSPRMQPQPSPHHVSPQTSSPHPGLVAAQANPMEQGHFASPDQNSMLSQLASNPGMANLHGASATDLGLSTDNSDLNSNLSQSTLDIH

Row | Compound | inhibition at 0.01 µM (P300; [1]) | IC50 (LNCaP cells; CellTiter-Glo (Table 2)) | inhibition at 0.01 µM (P300; [2]) | IC50 (LNCaP cells; CellTiter-Glo (Table 3))
1 | CNC(=O)N1CCc2c(c(N3CCCc4cc(-c5cnn(CC(=O)NCCCCCCCCNc6cccc7c6C(=O)N(C6CCC(=O)NC6=O)C7=O)c5)c(C(F)F)cc43)nn2C2CCOCC2)C1 (stereo not drawn) [P-043, 3-(7-(difluoromethyl)-6-(1-(2-((8-((2-(2,6-dioxopiperidin-3-yl)-1,3-dioxoisoindolin-4-yl)amino)octyl)amino)-2-oxoethyl)-1H-pyrazol-4-yl)-3,4-dihydroquinolin-1(2H)-yl)-N-methyl-1-(tetrahydro-2H-pyran-4-yl)-1,4,6,7-tetrahydro-5H-pyrazolo[4,3-c]pyridine-5-carboxamide] | 20 to 50% | 0.0154 µM |  | 
2 | CNC(=O)N1CCc2c(c(N3CCCc4cc(-c5cnn(C)c5)c(C(F)F)cc43)nn2C2CCN(C(=O)CCCCCC(=O)N[C@H](C(=O)N3C[C@H](O)C[C@H]3C(=O)NCc3ccc(-c4scnc4C)cc3)C(C)(C)C)CC2)C1 [P-059, 3-(7-(Difluoromethyl)-6-(1-methyl-1H-pyrazol-4-yl)-3,4-dihydroquinolin-1(2H)-yl)-1-(1-(7-(((S)-1-((2S,4R)-4-hydroxy-2-((4-(4-methylthiazol-5-yl)benzyl)carbamoyl)pyrrolidin-1-yl)-3,3-dimethyl-1-oxobutan-2-yl)amino)-7-oxoheptanoyl)piperidin-4-yl)-N-methyl-1,4,6,7-tetrahydro-5H-pyrazolo[4,3-c]pyridine-5-carboxamide] |  |  | < 20% | 0.0606 µM
3 | CC(=O)N1CCc2c(c(N3CCCc4cc(-c5cnn(C)c5)c(C(F)F)cc43)nn2C2CCN(C(=O)CCCCCCCCCn3c(=O)n(C4CCC(=O)NC4=O)c4ccccc43)CC2)C1 (stereo not drawn) [P-164, 3-(3-(10-(4-(5-acetyl-3-(7-(difluoromethyl)-6-(1-methyl-1H-pyrazol-4-yl)-3,4-dihydroquinolin-1(2H)-yl)-4,5,6,7-tetrahydro-1H-pyrazolo[4,3-c]pyridin-1-yl)piperidin-1-yl)-10-oxodecyl)-2-oxo-2,3-dihydro-1H-benzo[d]imidazol-1-yl)piperidine-2,6-dione] |  |  | > 80% | 0.001 µM
4 | CNC(=O)N1CCc2c(c(N3CCCc4cc(-c5cnn(C)c5)c(C(F)F)cc43)nn2C2CCN(C(=O)CCCCCOc3cccc4c3C(=O)N(C3CCC(=O)NC3=O)C4)CC2)C1 (stereo not drawn) [P-089, 3-(7-(Difluoromethyl)-6-(1-methyl-1H-pyrazol-4-yl)-3,4-dihydroquinolin-1(2H)-yl)-1-(1-(6-((2-(2,6-dioxopiperidin-3-yl)-3-oxoisoindolin-4-yl)oxy)hexanoyl)piperidin-4-yl)-N-methyl-1,4,6,7-tetrahydro-5H-pyrazolo[4,3-c]pyridine-5-carboxamide] |  |  | < 20% | 0.0785 µM
5 | CC(=O)N1CCc2c(c(N3CCCc4cc(-c5cnn(C)c5)c(C(F)F)cc43)nn2C2CCN(C(=O)CCCCCNc3ccc4c(c3)C(=O)N(C3CCC(=O)NC3=O)C4=O)CC2)C1 (stereo not drawn) [P-120, 5-((6-(4-(5-acetyl-3-(7-(difluoromethyl)-6-(1-methyl-1H-pyrazol-4-yl)-3,4-dihydroquinolin-1(2H)-yl)-4,5,6,7-tetrahydro-1H-pyrazolo[4,3-c]pyridin-1-yl)piperidin-1-yl)-6-oxohexyl)amino)-2-(2,6-dioxopiperidin-3-yl)isoindoline-1,3-dione] |  |  | > 80% | 0.0094 µM
6 | CC(=O)N1CCc2c(c(N3CCCc4cc(-c5cnn(C)c5)c(C(F)F)cc43)nn2C2CCN(CC3CCN(CCCc4cccc5c4C(=O)N(C4CCC(=O)NC4=O)C5=O)CC3)CC2)C1 (stereo not drawn) [P-149, 4-(3-(4-((4-(5-acetyl-3-(7-(difluoromethyl)-6-(1-methyl-1H-pyrazol-4-yl)-3,4-dihydroquinolin-1(2H)-yl)-4,5,6,7-tetrahydro-1H-pyrazolo[4,3-c]pyridin-1-yl)piperidin-1-yl)methyl)piperidin-1-yl)propyl)-2-(2,6-dioxopiperidin-3-yl)isoindoline-1,3-dione] |  |  | > 80% | 0.0114 µM
7 | CNC(=O)N1CCc2c(c(N3CCCc4cc(-c5cnn(C)c5)c(C(F)F)cc43)nn2C2CCN(C(=O)CN3CCC(CCc4cccc5c4C(=O)N(C4CCC(=O)NC4=O)C5=O)CC3)CC2)C1 (stereo not drawn) [P-104, 3-(7-(difluoromethyl)-6-(1-methyl-1H-pyrazol-4-yl)-3,4-dihydroquinolin-1(2H)-yl)-1-(1-(2-(4-(2-(2-(2,6-dioxopiperidin-3-yl)-1,3-dioxoisoindolin-4-yl)ethyl)piperidin-1-yl)acetyl)piperidin-4-yl)-N-methyl-1,4,6,7-tetrahydro-5H-pyrazolo[4,3-c]pyridine-5-carboxamide] |  |  | > 80% | 0.0121 µM
8 | CC(=O)N1CCc2c(c(N3CCCc4cc(-c5cnn(C)c5)c(C(F)F)cc43)nn2C2CCN(C(=O)CN3CCC(CCc4cccc5c4C(=O)N(C4CCC(=O)NC4=O)C5=O)CC3)CC2)C1 (stereo not drawn) [P-131, 4-(2-(1-(2-(4-(5-acetyl-3-(7-(difluoromethyl)-6-(1-methyl-1H-pyrazol-4-yl)-3,4-dihydroquinolin-1(2H)-yl)-4,5,6,7-tetrahydro-1H-pyrazolo[4,3-c]pyridin-1-yl)piperidin-1-yl)-2-oxoethyl)piperidin-4-yl)ethyl)-2-(2,6-dioxopiperidin-3-yl)isoindoline-1,3-dione] |  |  | > 80% | 0.014 µM
9 | CNC(=O)N1CCc2c(c(N3CCCc4cc(-c5cnn(CC(=O)NCC(=O)N[C@H](C(=O)N6C[C@H](O)C[C@H]6C(=O)NCc6ccc(-c7scnc7C)cc6)C(C)(C)C)c5)c(C(F)F)cc43)nn2C2CCOCC2)C1 [P-044] | < 20% | > 10 µM |  | 
10 | CNC(=O)N1CCc2c(c(N3CCCc4cc(-c5cnn(CC(=O)NCCCCNc6ccc7c(c6)C(=O)N(C6CCC(=O)NC6=O)C7=O)c5)c(C(F)F)cc43)nn2C2CCOCC2)C1 (stereo not drawn) [P-018] | 20 to 50% | 0.0594 µM |  | 
11 | CNC(=O)N1CCc2c(c(N3CCCc4cc(-c5cnn(C)c5)c(C(F)F)cc43)nn2C2CCN(C(=O)CCCCCCCCC(=O)N[C@H](C(=O)N3C[C@H](O)C[C@H]3C(=O)NCc3ccc(-c4scnc4C)cc3)C(C)(C)C)CC2)C1 [P-062, 3-(7-(Difluoromethyl)-6-(1-methyl-1H-pyrazol-4-yl)-3,4-dihydroquinolin-1(2H)-yl)-1-(1-(10-(((S)-1-((2S,4R)-4-hydroxy-2-((4-(4-methylthiazol-5-yl)benzyl)carbamoyl)pyrrolidin-1-yl)-3,3-dimethyl-1-oxobutan-2-yl)amino)-10-oxodecanoyl)piperidin-4-yl)-N-methyl-1,4,6,7-tetrahydro-5H-pyrazolo[4,3-c]pyridine-5-carboxamide] |  |  | 20 to 50% | 0.035 µM
12 | CNC(=O)N1CCc2c(c(N3CCCc4cc(-c5cnn(C)c5)c(C(F)F)cc43)nn2C2CCN(C(=O)CCCCCNc3ccc4c(c3)C(=O)N(C3CCC(=O)NC3=O)C4=O)CC2)C1 (stereo not drawn) [P-005, 3-(7-(difluoromethyl)-6-(1-methyl-1H-pyrazol-4-yl)-3,4-dihydroquinolin-1(2H)-yl)-1-(1-(6-((2-(2,6-dioxopiperidin-3-yl)-1,3-dioxoisoindolin-5-yl)amino)hexanoyl)piperidin-4-yl)-N-methyl-1,4,6,7-tetrahydro-5H-pyrazolo[4,3-c]pyridine-5-carboxamide] | > 80% | 0.004 µM |  | 
